Tests used:
[1] = test system: immortalized outer hair root sheath cells; assay: Immortalized outer hair root sheath cell proliferation test (cellular DNA, Hoechst 33258); assay type: cell-based, human; conditions: 10 nM, 1 μM, 100 μM or 10 mM in KBM; 4 days culture; negative control = 100
Experimental: <Immortalized Outer Hair Root Sheath Cell Proliferation Tests>
[Culturing of Immortalized Outer Hair Root Sheath Cells]
Hair follicles were isolated from human scalp skin using scissors under a stereoscopic microscope. The hair follicles were cut off at the lower part of the sebaceous gland, and enzyme treatment was carried out with collagenase and dispase.
The hair bulb was cut off with scissors and excluded, and the hair shaft was separated with tweezers.
The hair shaft was subjected to enzyme treatment with trypsin, and then the reaction was stopped with trypsin inhibitor.
Centrifuging was carried out, the supernatant was thrown away, and the outer hair root sheath cells were recovered. […]
First generation cultured outer hair root sheath cells cultured until the cloning confluence of the cells was about 50% were washed with K-SFM, and then infection was carried out by adding the above-mentioned virus in a quantity of 1, 10 or 30 MOI (multiplicity of infection). […]
The cells were thawed, and were then added to each […], and smashed up with sonication. The cells were then transferred into a cuvette, and the fluorescence intensity was measured at an excitation wavelength of 356 nm and a fluorescence wavelength of 460 nm.

[2] = test system: cultured rat hair follicle epithelial cells; assay: Cell proliferation test using cultured rat hair follicle epithelial cells (alamar blue); assay type: cell-based; conditions: object substance concentration 1.0×10^−5% in KBM medium, 2 days culture, negative control 0, positive control (insulin + hydrocortisone) 1
Excerpt: B. Rat Hair Follicle Epithelial Cells
1. Collection of Rat Hair Follicle Epithelial Cells
(1) Collection of Hair Follicles
Dorsal skin was collected from newborn (3˜4-day-old) rats, and this collected dorsal skin was soaked two pieces at a time in PBS (−) containing 1% PSF.
Lower parts such as subcutaneous fat and membranes were then removed from the dermal fat layer using dissecting scissors.
Next, the dorsal skin was again soaked in PBS (−) containing 1% PSF, and was then soaked overnight at 4° C. in PBS (−) containing 0.25% trypsin (also containing 0.02% EDTA; likewise hereinafter). […]
A cell freezing liquid (Cellbanker; made by DAIYATRON) was added to the hair follicle epithelial cells, the concentration was adjusted to 1.5×10^7 cells/ml, 1.5×10^7 cells were put into each freezing tube, and storage was carried out by freezing. The number of cells was calculated using a haemacyto meter. […]

[3] = test system: cultured human hair follicle epithelial cells; assay: Cell proliferation test using cultured human hair follicle epithelial cells (alamar blue); assay type: cell-based; conditions: object substance concentration 1.0×10^−5% in KBM medium, 2 days culture, negative control 0, positive control (insulin + hydrocortisone) 1
Experimental: <Cell Proliferation Tests Using Cultured Hair Follicle Epithelial Cells>
A. Human Hair Follicle Epithelial Cells
1. Collection of Human Hair Follicle Epithelial Cells
Hair follicles in the growth period of the hair cycle were collected mechanically under a stereoscopic microscope from male human scalp skin obtained as a by-product from surgery.
The growth period hair follicles were treated for 30 minutes at 37° C. with Dulbecco's modified MEM (DMEM) containing 1000 U/ml dispase and 0.2% collagenase, and the dermal sheath, dermal papilla and hair bulb epithelial tissue were removed using the tip of an injection needle, and then treatment was carried out for 5 minutes at 37° C. with a phosphate buffer solution (PBS(−); ‘(−)’ means not containing calcium ions, magnesium ions etc.) containing 0.05% trypsin and 0.02% EDTA. […]
Next, the cells were suspended in the above-mentioned serum-free medium, sowing was carried out in a collagen-coated (type I) culture dish at a density of 5000 cells/cm^2, medium exchange was carried out every 2 days until the cells became subconfluent, and then treatment was again carried out for 5 minutes at 37° C. with 0.05 wt % trypsin and 0.02% EDTA, the reaction was then stopped with an equivalent of 0.1% trypsin inhibitor, and centrifuging (800×g, 5 minutes) was carried out. […] The number of cells was calculated using a haemacyto meter. […]

**Q.** What does the source list for `CNCCS(=O)(=O)O` [N-methyltaurine]?
**A.** Immortalized outer hair root sheath cell activation action (extent of cell proliferation, relative DNA amount, FIG. 1) [1]: has an immortalized outer hair root sheath cell activation action; Cell proliferation effect (cell proliferation index) [2]: 0.62; Cell proliferation effect (cell proliferation index) [3]: 0.64

— patent publication US20030003071A1, “Hair growth stimulant” (priority 2000, published 2003)
